One assay deals with mouse TAAR1 (Mus musculus (Mouse), UniProt Q923Y8). Description: Radioligand binding assay on mouse TAAR1. The note with it: for Ki: read-out: Ki (μM) mouse. Summed up:
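Membranes were from HEK293 cells stably expressing mouse TAAR1. Compounds from 10 pM to 10 μM, in duplicate, competed with [3H]-(S)-4-[(ethyl-phenyl-amino)-methyl]-4,5-dihydro-oxazol-2-ylamine for 1 h at 4 °C. Nonspecific binding was defined with 10 μM unlabelled ligand, and bound radioactivity was read by filtration and scintillation.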

The target of the next assay is rat TAAR1 (Rattus norvegicus (Rat), UniProt Q923Y9). Nature of the assay: Radioligand binding assay on rat TAAR1. The note with it: for Ki: read-out: Ki (μM) rat. Put shortly: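 Membranes from HEK293 cells stably expressing rat TAAR1, with Kd checked per batch by saturation. Competition with ³H-(S)-4-[(ethyl-phenyl-amino)-methyl]-4,5-dihydro-oxazol-2-ylamine, compounds 10 pM–10 μM in duplicate, 1 hr at 4 °C. Filtration then scintillation counting; nonspecific binding defined with 10 μM unlabeled ligand.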

The mark [1] stands for this setting: mouse TAAR1, HEK-293 membranes, first value of cell mouse/rat.
Where [2] appears, read: rat TAAR1, HEK-293 membranes, second value of cell mouse/rat.

The record followed here is US9452980B2, “Substituted benzamides” (Hoffmann-La Roche Inc., priority 2009, dated 2016).

pKi: −log10 of the molar value. Where a name gives a salt, the structure may show the parent alone. Read-outs that look alike come from different tables or passages of the source.

Sequence of mouse TAAR1 (Q923Y8 whole entry): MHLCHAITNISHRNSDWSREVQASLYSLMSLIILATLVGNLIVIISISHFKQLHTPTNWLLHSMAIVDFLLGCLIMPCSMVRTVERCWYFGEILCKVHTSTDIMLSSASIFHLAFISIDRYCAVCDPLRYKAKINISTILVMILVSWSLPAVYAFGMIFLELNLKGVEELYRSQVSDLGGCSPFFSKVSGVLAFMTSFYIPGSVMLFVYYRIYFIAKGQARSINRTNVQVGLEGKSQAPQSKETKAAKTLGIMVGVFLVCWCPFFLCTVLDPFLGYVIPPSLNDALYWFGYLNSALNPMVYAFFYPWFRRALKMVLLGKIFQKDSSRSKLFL
Sequence of rat TAAR1 (Q923Y9 whole entry): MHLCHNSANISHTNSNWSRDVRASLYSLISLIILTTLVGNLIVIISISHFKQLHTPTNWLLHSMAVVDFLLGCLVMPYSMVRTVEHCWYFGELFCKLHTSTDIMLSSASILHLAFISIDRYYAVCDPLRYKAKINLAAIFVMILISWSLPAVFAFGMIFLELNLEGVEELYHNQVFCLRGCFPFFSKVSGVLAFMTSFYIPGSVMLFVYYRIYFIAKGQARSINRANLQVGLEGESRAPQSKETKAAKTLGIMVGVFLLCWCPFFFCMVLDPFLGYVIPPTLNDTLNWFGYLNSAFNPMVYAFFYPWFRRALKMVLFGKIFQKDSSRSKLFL

With `O=C(Nc1ccc([C@H]2CCCNC2)cc1)c1ccc(C(F)(F)F)nc1` [Example 265, (R)—N-(4-(Piperidin-3-yl)phenyl)-6-(trifluoromethyl)nicotinamide hydrochloride], the results for the Ki on mouse TAAR1 and at rat TAAR1 were 0.0209 µM and 0.0059 µM, respectively.
In the case of `Cc1ccc(C(=O)Nc2ccc([C@H]3CNCCO3)cc2)cc1` [Example 196, (S)-4-Methyl-N-(4-(morpholin-2-yl)phenyl)benzamide hydrochloride], the Ki was 0.0524 µM on mouse TAAR1 (setting [1]) and 0.001 µM on rat TAAR1 (setting [2]).
In the same order, the values of `N#Cc1cccc(CC(=O)Nc2ccc(C3CCNC3)cc2)c1` (racemic) [Example 66, (RS)-2-(3-Cyano-phenyl)-N-(4-pyrrolidin-3-yl-phenyl)-acetamide] are 0.137 µM and 0.645 µM.
With `Cc1ccc(C(=O)Nc2ccc([C@@H]3CCCNC3)cc2)cn1` [Example 243, (S)-6-Methyl-N-(4-(piperidin-3-yl)phenyl)nicotinamide hydrochloride], the Ki at mouse TAAR1 (setting [1]) amounted to 2.12 µM; on rat TAAR1 (setting [2]) it was 0.0062 µM.
In the case of `O=C(NCc1ccc([C@@H]2CNCCO2)cc1)c1ccc(Cl)nc1` [Example 315, (R)-6-Chloro-N-(4-(morpholin-2-yl)benzyl)nicotinamide hydrochloride], the figures for the inhibition constant Ki at mouse TAAR1 (setting [1]) and at rat TAAR1 (setting [2]) were 1.35 µM and 0.009 µM, respectively.
On to `N#Cc1ccc(C(=O)Nc2ccc(C3CCNC3)cc2)cc1` (racemic) [Example 55, (RS)-4-Cyano-N-(4-pyrrolidin-3-yl-phenyl)-benzamide hydrochloride], for which the Ki at mouse TAAR1 amounted to 0.0048 µM; on rat TAAR1 (setting [2]) it was 0.0745 µM.
Consider `O=C(Nc1ccc(CCC2CCCCN2)cc1)c1ccc(Cl)cc1` (racemic) [Example 169, (RS)-4-Chloro-N-(4-(2-(piperidin-2-yl)ethyl)phenyl)benzamide hydrochloride], for which the values for the Ki at mouse TAAR1 (setting [1]) and on rat TAAR1 (setting [2]) were 0.0607 µM and 0.0027 µM, respectively.
Turning to `O=C(Nc1ccc(C2CCNC2)cc1)Oc1ccccc1` (racemic) [Example 11, (RS)-(4-Pyrrolidin-3-yl-phenyl)-carbamic acid phenyl ester hydrochloride], the pKi on mouse TAAR1 is 8.19; at rat TAAR1, 7.50.
As for `CC(C(=O)Nc1ccc(C2CCNC2)cc1)c1cccc(C(=O)c2ccccc2)c1` (racemic) [Example 64, (RS)-2-(3-Benzoyl-phenyl)-N—((RS)-4-pyrrolidin-3-yl-phenyl)-propionamide], the figures for the Ki at mouse TAAR1 (setting [1]) and on rat TAAR1 (setting [2]) were 0.124 µM and 0.0215 µM, respectively.
On to `O=C(Nc1ccc([C@@H]2CNCCO2)cc1)c1ccc(OCC(F)(F)F)nc1` [Example 268, (R)—N-(4-(Morpholin-2-yl)phenyl)-6-(2,2,2-trifluoroethoxy)nicotinamide hydrochloride], for which the Ki amounted to 0.002 µM on mouse TAAR1 and 0.0024 µM on rat TAAR1.
With `COc1ccc(C(=O)Nc2ccc([C@@H]3CCCNC3)cc2)cc1Cl` [Example 203, (S)-3-Chloro-4-methoxy-N-(4-(piperidin-3-yl)phenyl)benzamide hydrochloride], the Ki is 0.0603 µM at mouse TAAR1 and 0.0014 µM at rat TAAR1.
Regarding `COc1cc(C(=O)Nc2ccc(C3CCNC3)cc2)nc2ccccc12` (racemic) [Example 90, (RS)-4-Methoxy-quinoline-2-carboxylic acid (4-pyrrolidin-3-yl-phenyl)-amide hydrochloride], the Ki at mouse TAAR1 (setting [1]) came out at 0.0192 µM; on rat TAAR1 (setting [2]), 0.0101 µM.
On to `O=C(Nc1ccc(C2CNCCO2)cc1)c1ccc(OCC(F)(F)F)nc1` (racemic) [Example 222, (RS)—N-(4-(Morpholin-2-yl)phenyl)-6-(2,2,2-trifluoroethoxy)nicotinamide hydrochloride], for which the Ki on mouse TAAR1 came to 0.0037 µM; at rat TAAR1, 0.0033 µM.
As for `CCOc1ccc(C(=O)Nc2ccc(C3CCCNC3)cc2)cc1` (racemic) [Example 97, (RS)-4-Ethoxy-N-(4-piperidin-3-yl-phenyl)-benzamide hydrochloride], the results for the Ki on mouse TAAR1 (setting [1]) and on rat TAAR1 (setting [2]) were 0.0038 µM and 0.0193 µM, respectively.
Consider `O=C(Nc1ccc(C2CCNC2)cc1)c1ccc(Cl)cn1` (racemic) [Example 42, (RS)-5-Chloro-pyridine-2-carboxylic acid (4-pyrrolidin-3-yl-phenyl)-amide hydrochloride], for which the results for the Ki on mouse TAAR1 (setting [1]) and on rat TAAR1 (setting [2]) were 0.0033 µM and 0.0354 µM, respectively.
For `O=C(Nc1ccc(CCC2CCNC2)cc1)c1ccc(Cl)cc1` (racemic) [Example 109, (RS)-4-Chloro-N-[4-(2-pyrrolidin-3-yl-ethyl)-phenyl]-benzamide hydrochloride], the Ki on mouse TAAR1 (setting [1]) was found to be 0.0017 µM; on rat TAAR1 (setting [2]), 0.0176 µM.
Turning to `O=C(Nc1ccc(C2CCNCC2)cc1)c1ccc(Cl)cc1` [Example 57, 4-Chloro-N-(4-piperidin-4-yl-phenyl)-benzamide hydrochloride], the Ki on mouse TAAR1 (setting [1]) is 0.0055 µM; at rat TAAR1 (setting [2]), 0.0005 µM.
In the same order, the values of `O=C(Nc1ccc(C2CCNC2)cc1)c1ccc(Cl)nc1` (racemic) [Example 43, (RS)-6-Chloro-pyridine-3-carboxylic acid (4-pyrrolidin-3-yl-phenyl)-amide hydrochloride] are 0.0041 µM and 0.0242 µM.
As to `O=C(Nc1ccc(C2CCCNC2)cc1)c1ccc(OCC(F)(F)F)nc1` (racemic) [Example 178, (RS)—N-(4-(Piperidin-3-yl)phenyl)-6-(2,2,2-trifluoroethoxy)nicotinamide hydrochloride], the figures for the Ki on mouse TAAR1 (setting [1]) and at rat TAAR1 (setting [2]) were 0.0032 µM and 0.002 µM, respectively.
`CCSc1cccc(C(=O)Nc2ccc([C@@H]3CCCNC3)cc2)c1` [Example 246, (S)-3-(Ethylthio)-N-(4-(piperidin-3-yl)phenyl)benzamide]: the Ki was 0.0151 µM at mouse TAAR1 (setting [1]) and 0.0012 µM on rat TAAR1 (setting [2]).
In the case of `O=C(Nc1ccc(C2CCNC2)cc1)Nc1ccc(Cl)c(Cl)c1` (racemic) [Example 3, (RS)-1-(3,4-Dichloro-phenyl)-3-(4-pyrrolidin-3-yl-phenyl)-urea hydrochloride], the inhibition constant Ki on mouse TAAR1 (setting [1]) is 0.0013 µM; on rat TAAR1 (setting [2]), 0.0016 µM.
Regarding `Cc1ccc(NC(=O)Nc2ccc(C3CNCCO3)cc2)cc1` (racemic) [Example 293, (RS)-1-(4-(Morpholin-2-yl)phenyl)-3-p-tolylurea hydrochloride], the results for the Ki on mouse TAAR1 (setting [1]) and at rat TAAR1 (setting [2]) were 0.0074 µM and 0.0014 µM, respectively.
For `O=C(Nc1ccc(C2CNCCO2)cc1)c1ccn(-c2ccccc2)n1` (racemic) [Example 299, (RS)—N-(4-(Morpholin-2-yl)phenyl)-1-phenyl-1H-pyrazole-3-carboxamide hydrochloride], the inhibition constant (Ki) at mouse TAAR1 (setting [1]) is 0.0022 µM; on rat TAAR1 (setting [2]), 0.0014 µM.
As for `O=C(Nc1ccc([C@H]2CCCNC2)cc1)c1ccc(Cl)cn1` [Example 167, (R)-5-Chloro-N-(4-(piperidin-3-yl)phenyl)picolinamide hydrochloride], the Ki amounted to 0.0271 µM at mouse TAAR1 and 0.0048 µM at rat TAAR1 (setting [2]).
Consider `O=C(Nc1ccc(C2CNCCO2)cc1)c1cnc(-c2ccccc2)s1` (racemic) [Example 231, (RS)—N-(4-(Morpholin-2-yl)phenyl)-2-phenylthiazole-5-carboxamide hydrochloride], for which the Ki was determined as 0.0043 µM on mouse TAAR1 and 0.0014 µM on rat TAAR1 (setting [2]).
Take `O=C(Nc1ccc(C2CNCCO2)cc1)c1ccc(OC2CCOCC2)nc1` (racemic) [Example 232, (RS)—N-(4-(Morpholin-2-yl)phenyl)-6-(tetrahydro-2H-pyran-4-yloxy)nicotinamide hydrochloride]: the Ki at mouse TAAR1 (setting [1]) turned out to be 0.15 µM; on rat TAAR1 (setting [2]), 0.0317 µM.
As to `O=C(Nc1ccc(C(=O)C2CCNC2)cc1)c1ccc(Cl)cc1` (racemic) [Example 136, (RS)-4-Chloro-N-[4-(pyrrolidine-3-carbonyl)-phenyl]-benzamide hydrochloride], the values for the pKi at mouse TAAR1 and at rat TAAR1 were 6.82 and 9.10, respectively.
For the molecule `CSc1ccc(C(=O)Nc2ccc([C@@H]3CCCNC3)cc2)cc1` [Example 236, (S)-4-(Methylthio)-N-(4-(piperidin-3-yl)phenyl)benzamide hydrochloride], the Ki on mouse TAAR1 (setting [1]) worked out at 0.214 µM; at rat TAAR1 (setting [2]), 0.0014 µM.
As for `O=C(Nc1ccc(C2CCNC2)cc1)OCCCc1ccc(Cl)cc1` (racemic) [Example 128, (RS)-(4-Pyrrolidin-3-yl-phenyl)-carbamic acid 3-(4-chloro-phenyl)-propyl ester], the inhibition constant Ki at mouse TAAR1 (setting [1]) and at rat TAAR1 (setting [2]) was 0.0003 µM each time.
As to `O=C(Nc1ccc(C2CCNC2)cc1)c1ncccc1F` (racemic) [Example 82, (RS)-3-Fluoro-pyridine-2-carboxylic acid (4-pyrrolidin-3-yl-phenyl)-amide hydrochloride], the values for the Ki on mouse TAAR1 (setting [1]) and at rat TAAR1 (setting [2]) were 0.713 µM and 1.77 µM, respectively.
As for `O=C(Nc1ccc([C@@H]2CCCNC2)cc1)c1ccc(Cl)cn1` [Example 168, (S)-5-Chloro-N-(4-(piperidin-3-yl)phenyl)picolinamide hydrochloride], the figures for the Ki at mouse TAAR1 and on rat TAAR1 (setting [2]) were 0.608 µM and 0.0026 µM, respectively.
`O=C(Nc1ccc([C@H]2CNCCO2)cc1)c1cccc(Cl)c1` [Example 263, (S)-3-Chloro-N-(4-(morpholin-2-yl)phenyl)benzamide hydrochloride]: the Ki on mouse TAAR1 was found to be 0.0152 µM; on rat TAAR1, 0.0011 µM.
In the case of `O=C(Cc1ccc(Cl)cc1)Nc1ccc(C2CCNC2)cc1` (racemic) [Example 17, (RS)-2-(4-Chloro-phenyl)-N-(4-pyrrolidin-3-yl-phenyl)-acetamide hydrochloride], the Ki on mouse TAAR1 (setting [1]) is 0.0083 µM; at rat TAAR1 (setting [2]), 0.0363 µM.
Consider `O=C(Nc1ccc([C@H]2CCCNC2)cc1)c1cnc(Cl)cn1` [Example 239, 5-Chloro-pyrazine-2-carboxylic acid ((R)-4-piperidin-3-yl-phenyl)-amide hydrochloride], for which the inhibition constant (Ki) stood at 0.0396 µM on mouse TAAR1 and 0.0085 µM at rat TAAR1 (setting [2]).
